For 16 compounds, IC50 results are on record in patent US20170240511A1 (MERCK SHARP & DOHME CORP., priority 2014, published 2017).

As a reminder, the IC50 is the concentration at which inhibition is half-maximal. Low readings indicate greater potency in that assay, high ones weaker potency in that assay.

In this assay the target is T1, Human HIF-PHD2 (Homo sapiens, UniProt Q9GZT9).
T1 construct: FLAG-tagged full length PHD2 expressed in and purified from baculovirus-infected Sf9 cells; FLAG; made in house; host or cells: baculovirus-infected Sf9 cells
T1 sequence (Q9GZT9 whole entry): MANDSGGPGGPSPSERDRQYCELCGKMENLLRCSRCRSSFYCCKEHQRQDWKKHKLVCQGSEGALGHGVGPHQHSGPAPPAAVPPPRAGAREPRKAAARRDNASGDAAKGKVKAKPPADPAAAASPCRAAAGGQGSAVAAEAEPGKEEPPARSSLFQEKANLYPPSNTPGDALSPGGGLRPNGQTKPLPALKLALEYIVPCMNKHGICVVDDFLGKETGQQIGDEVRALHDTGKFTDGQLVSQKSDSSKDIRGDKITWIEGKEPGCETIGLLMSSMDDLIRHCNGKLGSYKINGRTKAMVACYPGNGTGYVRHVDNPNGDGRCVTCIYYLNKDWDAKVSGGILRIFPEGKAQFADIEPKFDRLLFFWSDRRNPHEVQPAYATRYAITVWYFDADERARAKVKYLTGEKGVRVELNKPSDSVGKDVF
Put plainly: HIF-PHD2 inhibition assay: time resolved fluorescence detection of HIF peptide hydroxylation. To be noted: FLAG-tagged full length PHD2; 0.2 μM 2-oxoglutarate, 0.5 μM HIF-1α peptide; 45 minutes at room temperature. It counts as biochemical. The procedure:
To each well of a 384-well plate, 1 μL of test compounds in DMSO (final concentration ranging from 0.3 nM to 10 μM) were added into 20 μl of assay buffer (50 mM Tris pH 7.4/0.01% Tween-20/0.1 mg/ml bovine serum albumin/10 μM ferrous sulfate/1 mM sodium ascorbate/20 μg/ml catalase) containing 0.15 μg/ml FLAG-tagged full length PHD2 expressed in and purified from baculovirus-infected Sf9 cells. After a 5 min preincubation at room temperature, the enzymatic reactions were initiated by the addition of 4 μL of substrates final concentrations of 0.2 μM 2-oxoglutarate and 0.5 μM HIF-la peptide biotinyl-[…] […] After incubation for 45 minutes at room temperature, the reactions were terminated by the addition of a 25 μL quench/detection mix to a final concentration of 1 mM ortho-phenanthroline, 0.1 mM EDTA, 0.5 nM anti-(His)6 LANCE reagent (Perkin-Elmer Life Sciences), 100 nM AF647-labeled streptavidin (Invitrogen), and 2 μg/ml (His)6-VHL complex {S. Tan Protein Expr. Purif. […] Inhibition of the catalytic activity of HIF-PHD1 and HIF-PHD3 can be determined similarly, except for HIF-PHD3, final concentrations of 4 μM 2-oxoglutarate is used during the reaction.
Turning to `O=C(O)c1cnn(-c2cc(O)c(C(=O)NC(c3ccccc3)c3ccccc3)cn2)c1` [Example 1, 1-(5-(Benzhydrylcarbamoyl)-4-hydroxypyridin-2-yl)-1H-pyrazole-4-carboxylic acid], the IC50 was found to be 0.875 nM.

The compound `CCOC(=O)CCNC(=O)c1cc(O)c(C(=O)NC(c2ccccc2)c2ccccc2)cn1` [Example 2, ethyl 3-(5-(benzhydrylcarbamoyl)-4-hydroxypicolinamido)propanoate] gave an IC50 of 92.9 nM.

With `COC(=O)C(C)CNC(=O)c1cc(O)c(C(=O)NC(c2ccccc2)c2ccccc2)cn1` (stereo not shown) [Example 3, methyl 3-(5-(benzhydrylcarbamoyl)-4-hydroxypicolinamido)-2-methylpropanoate], the IC50 came to 136 nM.

In turn, `O=C(N[C@H]1C[C@H](C(=O)O)C1)c1cc(O)c(C(=O)NC(c2ccccc2)c2ccccc2)cn1` [Example 3] showed an IC50 of 1.64 nM.

`CCOC(=O)C1(CNC(=O)c2cc(O)c(C(=O)NC(c3ccc(Cl)cc3)c3ccc(Cl)cc3)cn2)CC1` [Example 5, ethyl 1-((5-((bis(4-chlorophenyl)methyl)carbamoyl)-4-hydroxypicolinamido)methyl) cyclopropanecarboxylate] showed an IC50 of 184 nM.

For the compound `CCOC(=O)C(C)(C)CNC(=O)c1cc(O)c(C(=O)NC(c2ccccc2)c2ccccc2)cn1` [Example 5, ethyl 3-(5-(benzhydrylcarbamoyl)-4-hydroxypicolinamido)-2,2-dimethylpropanoate], the concentration for half-maximal inhibition (IC50) was 276 nM.

`CCOC(=O)[C@H]1C[C@@H]1NC(=O)c1cc(O)c(C(=O)NC(c2ccccc2)c2ccccc2)cn1` [Example 6, (1S,2S)-ethyl 2-(5-(benzhydrylcarbamoyl)-4-hydroxypicolinamido)cyclopropanecarboxylate] yielded an IC50 of 89.1 nM.

`CCOC(=O)[C@@H]1C[C@H]1NC(=O)c1cc(O)c(C(=O)NC(c2ccccc2)c2ccccc2)cn1` [Example 7, (1R,2R)-ethyl 2-(5-(benzhydrylcarbamoyl)-4-hydroxypicolinamido)cyclopropanecarboxylate] came in with a concentration for half-maximal inhibition (IC50) of 37.3 nM.

As to `CC(CNC(=O)c1cc(O)c(C(=O)NC(c2ccccc2)c2ccccc2)cn1)C(=O)O` (stereo not shown) [Example 10, 3-(5-(benzhydrylcarbamoyl)-4-hydroxypicolinamido)-2-methylpropanoic acid], the IC50 turned out to be 1.89 nM.

In the case of `O=C(NCC1(C(=O)O)CC1)c1cc(O)c(C(=O)NC(c2ccccc2)c2ccccc2)cn1` [Example 11, 1-((5-(benzhydrylcarbamoyl)-4-hydroxypicolinamido)methyl)cyclopropanecarboxylic acid], half-maximal inhibition (IC50) required 5.24 nM.

`O=C(O)CCCNC(=O)c1cc(O)c(C(=O)NC(c2ccccc2)c2ccccc2)cn1` [Example 12, 4-(5-(benzhydrylcarbamoyl)-4-hydroxypicolinamido)butanoic acid]: the IC50 was determined as 1.02 nM.

For the compound `O=C(NCC(O)C(=O)O)c1cc(O)c(C(=O)NC(c2ccccc2)c2ccccc2)cn1` (stereo not shown) [Example 13, 3-(5-(benzhydrylcarbamoyl)-4-hydroxypicolinamido)-2-hydroxypropanoic acid], the midpoint of inhibition, the IC50, lay at 1.28 nM.

In turn, `CC(C)(CNC(=O)c1cc(O)c(C(=O)NC(c2ccccc2)c2ccccc2)cn1)C(=O)O` [Example 14, 3-(5-(benzhydrylcarbamoyl)-4-hydroxypicolinamido)-2,2-dimethylpropanoic acid] displayed an IC50 of 3.61 nM.

Compound `O=C(N[C@H]1C[C@@H]1C(=O)O)c1cc(O)c(C(=O)NC(c2ccccc2)c2ccccc2)cn1` [Example 15, (1S,2S)-2-(5-(benzhydrylcarbamoyl)-4-hydroxypicolinamido)cyclopropanecarboxylic acid] registered an IC50 of 6.69 nM.

With `O=C(N[C@@H]1C[C@H]1C(=O)O)c1cc(O)c(C(=O)NC(c2ccccc2)c2ccccc2)cn1` [Example 16, (1R,2R)-2-(5-(benzhydrylcarbamoyl)-4-hydroxypicolinamido)cyclopropanecarboxylic acid], the IC50 was 6.55 nM.

Regarding `O=C(NC12CC(C(=O)O)(C1)C2)c1cc(O)c(C(=O)NC(c2ccccc2)c2ccccc2)cn1` [Example 17, 3-(5-(benzhydrylcarbamoyl)-4-hydroxypicolinamido)bicyclo[1.1.1]pentane-1-carboxylic acid], the IC50 was 23.4 nM.
